# Patent publication US20240148671A1, “METHODS FOR IMPROVING POULTRY HEALTH” (CORNELL UNIVERSITY, priority 2021, published 2024)
# Marks after values point to notes of the source that are not given here.
# How the values were obtained:
# Type in all cases: in vivo, Gallus gallus
# [1] = Glycogen in pectoral muscle; conditions: intra-amniotic 1 mL/egg on day 17, at hatch, mean ± SEM, n=8
# Description: (§1) The pure resveratrol and pterostilbene were individually diluted in 18 MΩ H2O. The intra-amniotic administration followed the methodology previously described. On the 17th day of embryonic development, the eggs with viable embryos (n=60) were randomly allocated into 6 groups (n=10) with a similar weight frequency distribution. For the intra-amniotic treatment, 1 mL of solution per egg was injected into the amniotic fluid (via candling) with the aid of a 21-gauge needle. After the procedure, the injection sites were sealed with cellophane tape, and the eggs were distributed into six groups: (1) no injection; (2) 18 MΩ H2O; (3) 5% inulin; (4) 5% resveratrol; (5) 5% pterostilbene; and (6) synergistic: 4.75% resveratrol and 0.25% pterostilbene. […] The eggs were equally distributed in each incubator location to reduce possible allocation bias. Upon hatching (21 days), the hatchlings were euthanized by CO2 exposure, and the blood, liver, heart, pectoral muscle, small intestine and cecum were obtained.
# [2] = test system: duodenal tissue (villi, crypts, goblet cells); assay: Morphometric examination of duodenal tissue
# Description: as §1
# Villus epithelium analysis was conducted as previously published. The duodenal samples were soaked in buffered formaldehyde (4% (v/v)), dehydrated, cleared and embedded in paraffin. Numerous sections were cut with a thickness of 5 μm and put on slides. The sections were deparaffinized in xylene, after which they were rehydrated in a series of graded alcohol. Finally, the slides were stained with Alcian Blue-periodic acid-Schiff and investigated under a light microscopy. The variables were assessed (light microscope, EPIX XCAP software, standard version, Olympus, Waltham, MA, USA) for the following: villus length, villus diameter, depth of crypts, goblet cell diameter, crypt goblet cell number and villus goblet cells type number (acidic, neutral or mixed). Four segments for each biological sample and five biological samples per treatment group were examined. The goblet cells were enumerated at 10 villi/sample, and the means were calculated for statistical analysis.
# [3] = test system: AP (Aminopeptidase); assay: Gene expression (RT-PCR), AP; conditions: at hatch; b175: relative to the 18 MΩ M2O and 5% inulin control groups; b192: comparator not stated; p<0.05
# Description: The pure resveratrol and pterostilbene were individually diluted in 18 MΩ H2O. The intra-amniotic administration followed the methodology previously described. On the 17th day of embryonic development, the eggs with viable embryos (n=60) were randomly allocated into 6 groups (n=10) with a similar weight frequency distribution. For the intra-amniotic treatment, 1 mL of solution per egg was injected into the amniotic fluid (via candling) with the aid of a 21-gauge needle. […]
# The RNA was isolated as described previously (RNeasy Mini Kit, Qiagen Inc., Valencia, CA, USA), and 30 mg of the duodenal tissue or liver tissue (n =8) was used to extract the total RNA. […] Finally, the RNA was eluted in 50 μL of RNase-free water and quantified by absorbance at 260 and 280 nm.
# RT-PCR was conducted as described. […] The cDNA content was assessed by absorbance at 260 and 280 nm, with an extinction coefficient of 33 (single-stranded DNA). Genomic DNA contamination was evaluated via a real-time RT-PCR assay for the reference gene samples [17,18,30]. […]
# The procedures were performed as previously published. […] The optimal MgCl2 concentration achieved, for each reaction, an amplification plot (lowest cycle product, Cp), the uppermost fluorescence intensity and the steepest amplification slope. […]
# [4] = duodenum, intra-amniotic 1 mL/egg on day 17, at hatch, mean ± SEM, n=5
# [5] = small intestine, intra-amniotic 1 mL/egg on day 17, at hatch, mean ± SEM, n=5
structure (smiles),measurement,setting,value
"Oc1ccc(C=Cc2cc(O)cc(O)c2)cc1 [5% Resveratrol, Resveratrol]",Glycogen (mg/g),[1],0.019 ± 0.004^a mg/g
same,Depth of Crypts (μm),[2]; [4],63.73 ± 1.20^a μm
same,Mucus Layer Width (μm),[2]; [4],4.80 ± 0.13^d μm
same,Villus Diameter (μm),[2]; [4],54.47 ± 0.70^b μm
same,Villus Length (μm),[2]; [4],294.92 ± 3.48^c μm
same,Crypt Goblet Cell Number,[2]; [5],10.91 ± 0.21 ^b
same,Goblet Cell Diameter (μM),[2]; [5],7.94 ± 0.06 ^b μM
same,"Villus Goblet Cell Type Number, Acidic",[2]; [5],10.97 ± 0.23 ^a
same,"Villus Goblet Cell Type Number, Mixed",[2]; [5],0.17 ± 0.03 ^c
same,"Villus Goblet Cell Type Number, Neutral",[2]; [5],0.00 ± 0.00 ^b
same,"Duodenal villus diameter, comparison with controls","[2]; versus the controls, p<0.05",significant increase
same,"Duodenal villus length, comparison with controls","[2]; versus the controls, p<0.05",significant increase
same,AP relative expression,[3],downregulated
